# From US11352359B2, “PI3K protein kinase inhibitors” (Rhizen Pharmaceuticals SA, priority 2013, dated 2022)
# Structures can show the parent of a compound that is named as a salt.
# Columns and labels:
# [1] = target: PI3Kγ (Homo sapiens, UniProt P48736); test: Fluorescent determination of PI3Kinase enzyme activity (HTRF), PI3Kγ; assay type: biochemical; conditions: 100 nM (underlined values: 300 nM)
# Description: (§1) Fluorescent Determination of PI3Kinase Enzyme Activity
# (§2) Phosphoinositide 3 kinases (PI3K) belong to a class of Lipid kinases that play a critical role in the regulation of several key cellular processes. The PI3K are capable of phosphorylating the 3-hydroxy position of phosphoinositols thereby generating second messengers involved in downstream signalling events. The homogenous time resolved fluorescence (HTRF) assay allows detection of 3,4,5-triphosphate (PIP3) formed as a result of phosphorylation of phosphotidylinositol 4,5-biphosphate (PIP2) by PI3K isoforms such as α, […], γ or δ.
# (§3) PI3K isoform activity for α, β, γ or δ is to be determined using a PI3K human HTRF™ Assay Kit (Millipore, Billerica, Mass.) with modifications. All incubations were carried out at room temperature. Briefly, 0.5 μl of 40× inhibitor (in 100% DMSO) or 100% DMSO were added to each well of a 384-well black plate (Greiner Bio-One, Monroe, N.C.) containing 14.5 μl 1× reaction buffer/PIP2 (10 mM MgCl2, 5 mM DTT, 1.38 μM PIP2) mix with or without enzyme and incubated for 10 min. After the initial incubation, 5 μl/well of 400 μM ATP was added and incubated for an additional 30 minutes. Reaction was terminated by adding 5 μl/well stop solution (Millipore, Billerica, Mass.). Five microliters of detection mix (Millipore, Billerica, Mass.) were then added to each well and was incubated for 6-18 h in the dark. HRTF ratio was measured on a microplate reader (BMG Labtech, Germany) at an excitation wavelength of 337 nm and emission wavelengths of 665 and 620 nm with an integration time of 400 μsec. Data was analyzed using Graphpad Prism (Graphpad software; San Diego Calif.) for IC50 determination).
# [2] = target: PI3Kα (Homo sapiens, UniProt P42336); test: Fluorescent determination of PI3Kinase enzyme activity (HTRF), PI3Kα; assay type: biochemical
# Chain of PI3Kα (P42336 whole entry): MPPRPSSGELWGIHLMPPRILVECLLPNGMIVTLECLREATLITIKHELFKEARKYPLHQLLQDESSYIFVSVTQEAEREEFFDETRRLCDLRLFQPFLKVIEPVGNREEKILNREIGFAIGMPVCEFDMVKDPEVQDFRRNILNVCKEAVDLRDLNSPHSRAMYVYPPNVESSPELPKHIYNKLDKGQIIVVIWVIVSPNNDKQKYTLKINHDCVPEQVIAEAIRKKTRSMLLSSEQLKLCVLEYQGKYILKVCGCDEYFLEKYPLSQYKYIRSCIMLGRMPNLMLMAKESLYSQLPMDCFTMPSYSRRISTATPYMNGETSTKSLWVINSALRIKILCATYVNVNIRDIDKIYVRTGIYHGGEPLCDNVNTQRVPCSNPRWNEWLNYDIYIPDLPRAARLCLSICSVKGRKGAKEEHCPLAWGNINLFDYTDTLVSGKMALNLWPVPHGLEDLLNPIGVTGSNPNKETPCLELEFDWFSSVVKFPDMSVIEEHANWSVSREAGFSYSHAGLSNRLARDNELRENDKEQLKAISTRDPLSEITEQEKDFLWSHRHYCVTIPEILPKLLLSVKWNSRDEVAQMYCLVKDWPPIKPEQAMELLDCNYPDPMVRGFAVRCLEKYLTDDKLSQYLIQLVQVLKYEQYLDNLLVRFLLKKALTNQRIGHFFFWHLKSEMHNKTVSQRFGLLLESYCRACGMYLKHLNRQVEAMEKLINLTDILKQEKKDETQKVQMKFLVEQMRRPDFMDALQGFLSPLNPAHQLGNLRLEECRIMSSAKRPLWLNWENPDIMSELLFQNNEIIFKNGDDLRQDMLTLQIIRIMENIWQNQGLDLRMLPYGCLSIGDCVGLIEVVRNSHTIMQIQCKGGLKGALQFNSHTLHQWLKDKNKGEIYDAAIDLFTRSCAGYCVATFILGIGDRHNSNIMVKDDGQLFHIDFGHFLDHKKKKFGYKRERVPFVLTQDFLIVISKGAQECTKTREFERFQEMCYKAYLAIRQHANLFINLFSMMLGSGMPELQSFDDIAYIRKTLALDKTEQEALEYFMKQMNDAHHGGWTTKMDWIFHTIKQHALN
# Chain of PI3Kα (P27986 whole entry partner): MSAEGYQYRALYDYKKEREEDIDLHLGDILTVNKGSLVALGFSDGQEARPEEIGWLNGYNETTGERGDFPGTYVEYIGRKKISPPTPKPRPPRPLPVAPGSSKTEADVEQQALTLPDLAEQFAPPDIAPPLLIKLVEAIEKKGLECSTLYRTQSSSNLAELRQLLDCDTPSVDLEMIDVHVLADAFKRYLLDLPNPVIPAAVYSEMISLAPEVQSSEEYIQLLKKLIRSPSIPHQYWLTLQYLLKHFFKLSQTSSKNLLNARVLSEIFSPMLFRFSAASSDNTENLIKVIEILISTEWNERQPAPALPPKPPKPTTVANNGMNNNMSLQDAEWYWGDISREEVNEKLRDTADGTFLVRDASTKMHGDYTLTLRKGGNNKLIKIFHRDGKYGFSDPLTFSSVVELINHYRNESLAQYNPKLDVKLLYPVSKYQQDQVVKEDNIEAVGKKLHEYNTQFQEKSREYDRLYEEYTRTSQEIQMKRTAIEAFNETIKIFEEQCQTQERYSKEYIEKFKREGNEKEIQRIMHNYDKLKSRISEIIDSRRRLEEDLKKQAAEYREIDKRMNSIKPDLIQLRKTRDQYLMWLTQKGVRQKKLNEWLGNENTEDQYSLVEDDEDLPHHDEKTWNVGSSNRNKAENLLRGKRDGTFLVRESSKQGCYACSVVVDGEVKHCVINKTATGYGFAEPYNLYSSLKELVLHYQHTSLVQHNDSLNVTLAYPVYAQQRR
# Description: as §1, §2, §3
# [3] = target: PI3Kβ (Homo sapiens, UniProt P42338); test: Fluorescent determination of PI3Kinase enzyme activity (HTRF), PI3Kβ; assay type: biochemical
# Chain of PI3Kβ (P42338 whole entry): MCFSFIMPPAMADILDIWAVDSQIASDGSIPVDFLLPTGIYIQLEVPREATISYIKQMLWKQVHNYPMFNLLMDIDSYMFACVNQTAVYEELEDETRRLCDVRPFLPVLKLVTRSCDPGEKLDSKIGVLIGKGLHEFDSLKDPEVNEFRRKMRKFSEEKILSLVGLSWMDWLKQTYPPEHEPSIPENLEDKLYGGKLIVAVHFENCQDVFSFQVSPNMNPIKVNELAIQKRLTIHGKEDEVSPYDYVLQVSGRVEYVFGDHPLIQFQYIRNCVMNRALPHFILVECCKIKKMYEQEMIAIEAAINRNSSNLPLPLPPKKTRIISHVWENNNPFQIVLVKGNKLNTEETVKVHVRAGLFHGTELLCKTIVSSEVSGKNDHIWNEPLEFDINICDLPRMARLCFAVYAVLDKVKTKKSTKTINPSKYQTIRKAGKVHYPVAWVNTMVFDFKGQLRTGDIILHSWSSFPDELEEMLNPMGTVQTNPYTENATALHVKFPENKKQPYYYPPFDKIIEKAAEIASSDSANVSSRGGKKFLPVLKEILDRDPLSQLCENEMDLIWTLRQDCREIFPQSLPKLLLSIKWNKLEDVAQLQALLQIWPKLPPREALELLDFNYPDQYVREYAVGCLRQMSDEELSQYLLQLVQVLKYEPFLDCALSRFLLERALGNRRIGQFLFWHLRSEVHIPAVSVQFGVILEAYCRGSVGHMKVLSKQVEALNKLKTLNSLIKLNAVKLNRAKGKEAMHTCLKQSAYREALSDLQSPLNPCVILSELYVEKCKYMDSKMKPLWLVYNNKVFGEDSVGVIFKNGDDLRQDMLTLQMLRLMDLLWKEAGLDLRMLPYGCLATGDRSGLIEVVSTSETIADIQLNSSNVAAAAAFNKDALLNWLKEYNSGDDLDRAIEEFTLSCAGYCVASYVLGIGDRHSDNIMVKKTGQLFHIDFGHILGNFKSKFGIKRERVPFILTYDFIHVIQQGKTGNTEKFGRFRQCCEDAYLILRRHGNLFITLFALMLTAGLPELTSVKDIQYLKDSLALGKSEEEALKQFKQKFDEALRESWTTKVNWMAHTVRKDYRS
# Chain of PI3Kβ (P27986 whole entry partner): as the sequence (P27986 whole entry partner) above
# Description: as §1, §2, §3
# [4] = target: PI3Kδ (Homo sapiens, UniProt O00329); test: Fluorescent determination of PI3Kinase enzyme activity (HTRF), PI3Kδ; assay type: biochemical; conditions: 100 nM (underlined values: 300 nM)
# Chain of PI3Kδ (O00329 whole entry): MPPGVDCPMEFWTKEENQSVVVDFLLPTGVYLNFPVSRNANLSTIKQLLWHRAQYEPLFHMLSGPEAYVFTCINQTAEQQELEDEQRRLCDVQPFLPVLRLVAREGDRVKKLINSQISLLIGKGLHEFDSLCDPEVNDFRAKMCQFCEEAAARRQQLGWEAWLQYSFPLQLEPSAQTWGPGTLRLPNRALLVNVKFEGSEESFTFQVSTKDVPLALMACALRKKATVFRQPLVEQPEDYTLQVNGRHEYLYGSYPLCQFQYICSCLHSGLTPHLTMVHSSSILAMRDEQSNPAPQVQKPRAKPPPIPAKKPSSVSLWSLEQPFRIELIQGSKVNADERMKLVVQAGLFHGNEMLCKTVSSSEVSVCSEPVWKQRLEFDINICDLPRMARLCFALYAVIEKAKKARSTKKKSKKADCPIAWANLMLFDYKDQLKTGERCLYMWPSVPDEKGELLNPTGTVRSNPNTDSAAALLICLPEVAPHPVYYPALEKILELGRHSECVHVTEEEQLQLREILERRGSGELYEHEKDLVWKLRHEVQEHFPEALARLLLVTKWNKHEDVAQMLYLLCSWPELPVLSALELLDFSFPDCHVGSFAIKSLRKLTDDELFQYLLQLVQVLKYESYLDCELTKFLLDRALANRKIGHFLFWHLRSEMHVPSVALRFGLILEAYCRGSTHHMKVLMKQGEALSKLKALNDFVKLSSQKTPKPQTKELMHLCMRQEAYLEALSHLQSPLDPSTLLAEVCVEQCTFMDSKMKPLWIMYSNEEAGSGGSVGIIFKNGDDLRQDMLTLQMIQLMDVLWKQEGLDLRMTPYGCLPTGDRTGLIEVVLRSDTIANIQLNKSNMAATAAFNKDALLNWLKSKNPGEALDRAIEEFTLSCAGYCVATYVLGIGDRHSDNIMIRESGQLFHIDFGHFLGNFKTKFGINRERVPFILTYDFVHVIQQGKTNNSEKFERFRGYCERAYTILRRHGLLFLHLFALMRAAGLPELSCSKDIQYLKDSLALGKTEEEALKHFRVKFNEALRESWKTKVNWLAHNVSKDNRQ
# Chain of PI3Kδ (P27986 whole entry partner): as the sequence (P27986 whole entry partner) above
# Description: as §1, §2, §3
# Chain of PI3Kγ (P48736 whole entry): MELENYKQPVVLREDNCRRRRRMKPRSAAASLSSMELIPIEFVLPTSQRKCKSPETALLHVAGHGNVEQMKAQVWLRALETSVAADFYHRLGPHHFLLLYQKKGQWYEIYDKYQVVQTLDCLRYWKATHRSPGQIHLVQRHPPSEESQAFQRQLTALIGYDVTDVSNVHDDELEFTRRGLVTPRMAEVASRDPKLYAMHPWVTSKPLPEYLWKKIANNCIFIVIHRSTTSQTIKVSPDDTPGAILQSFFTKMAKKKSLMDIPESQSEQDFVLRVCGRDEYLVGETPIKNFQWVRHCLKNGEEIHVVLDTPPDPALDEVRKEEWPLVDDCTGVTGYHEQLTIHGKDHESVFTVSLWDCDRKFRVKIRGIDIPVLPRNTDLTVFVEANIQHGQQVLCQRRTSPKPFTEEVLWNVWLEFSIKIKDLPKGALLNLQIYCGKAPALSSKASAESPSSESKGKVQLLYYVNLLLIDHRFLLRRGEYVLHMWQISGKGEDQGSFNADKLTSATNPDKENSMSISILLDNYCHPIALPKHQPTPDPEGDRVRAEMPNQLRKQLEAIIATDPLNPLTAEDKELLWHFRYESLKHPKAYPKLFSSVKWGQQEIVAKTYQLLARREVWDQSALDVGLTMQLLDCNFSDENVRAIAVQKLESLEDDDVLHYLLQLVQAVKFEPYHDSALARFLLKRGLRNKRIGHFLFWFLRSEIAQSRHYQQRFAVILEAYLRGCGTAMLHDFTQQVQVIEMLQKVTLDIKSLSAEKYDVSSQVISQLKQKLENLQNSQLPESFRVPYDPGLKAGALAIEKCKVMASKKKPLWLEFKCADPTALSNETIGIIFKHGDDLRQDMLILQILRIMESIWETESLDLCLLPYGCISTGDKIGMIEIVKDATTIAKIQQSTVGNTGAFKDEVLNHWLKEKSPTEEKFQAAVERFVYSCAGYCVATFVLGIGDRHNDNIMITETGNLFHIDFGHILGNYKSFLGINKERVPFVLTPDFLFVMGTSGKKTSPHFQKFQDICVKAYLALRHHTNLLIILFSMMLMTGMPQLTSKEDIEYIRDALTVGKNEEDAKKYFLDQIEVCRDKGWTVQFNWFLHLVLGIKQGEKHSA
SMILES,melting point [°C],inhibition at 0.1 µM [1] [%],inhibition at 1 µM [2] [%],inhibition at 1 µM [3] [%],inhibition at 0.1 µM [4] [%]
"CC(C)Oc1ccc(-c2nn(C(C)c3nc4ccc(F)cc4c(=O)n3-c3ccccc3)c3ncnc(N)c23)cc1F (stereo not drawn) (as salt: potassium) [Example 4, 2-(1-(4-amino-3-(3-fluoro-4-isopropoxyphenyl)-1H-pyrazolo[3,4-d]pyrimidin-1-yl)ethyl)-6-fluoro-3-phenylquinazolin-4(3H)-one]",215 to 218,–,–,–,–
"CC(C)Oc1ccc(-c2nn(C(C)c3nc4ccccc4c(=O)n3-c3ccccc3)c3ncnc(N)c23)cc1F (stereo not drawn) (as salt: potassium) [Example 6, 2-(1-(4-amino-3-(3-fluoro-4-isopropoxyphenyl)-1H-pyrazolo[3,4-d]pyrimidin-1-yl)ethyl)-3-phenylquinazolin-4(3H)-one]",236 to 239,–,–,–,–
"CC(C)Oc1ccc(-c2nn([C@H](C)c3nc4ccccc4c(=O)n3-c3ccccc3)c3ncnc(N)c23)cc1F [Example 6b, (−)-2-(1-(4-amino-3-(3-fluoro-4-isopropoxyphenyl)-1H-pyrazolo[3,4-d]pyrimidin-1-yl)ethyl)-3-phenylquinazolin-4(3H)-one]",192 to 195,0 to 20,0 to 10,20 to 40,20 to 40
"CCC(c1nc2ccccc2c(=O)n1-c1ccccc1)n1nc(-c2ccc(OC(C)C)c(F)c2)c2c(N)ncnc21 (stereo not drawn) [Example 22, 2-{1-[4-Amino-3-(3-fluoro-4-isopropoxy-phenyl)-pyrazolo[3,4-d]pyrimidin-1-yl]-propyl}-3-phenyl-3H-quinazolin-4-one]",261 to 263,–,–,–,–

# More lines, now with the values ahead:
melting point [°C],inhibition at 0.1 µM [1] [%],inhibition at 1 µM [2] [%],inhibition at 1 µM [3] [%],inhibition at 0.1 µM [4] [%],SMILES
264 to 266,–,–,–,–,"CC(C)Oc1ccc(-c2nn(C(C)c3cc4cccc(F)c4c(=O)n3-c3ccccc3)c3ncnc(N)c23)cc1F (stereo not drawn) (as salt: potassium) [Example 2, 3-(1-(4-amino-3-(3-fluoro-4-isopropoxyphenyl)-1H-pyrazolo[3,4-d]pyrimidin-1-yl)ethyl)-8-fluoro-2-phenylisoquinolin-1(2H)-one]"
160 to 162,–,–,–,–,"CC(c1cc2cccc(Cl)c2c(=O)n1-c1ccccc1)n1nc(-c2ccc(OC(F)F)c(F)c2)c2c(N)ncnc21 (stereo not drawn) (as salt: potassium) [Example 17, 3-(1-(4-amino-3-(4-(difluoromethoxy)-3-fluorophenyl)-1H-pyrazolo[3,4-d]pyrimidin-1-yl)ethyl)-8-chloro-2-phenylisoquinolin-1(2H)-one]"
164 to 166,0 to 20,0 to 10,0 to 10,20 to 40,"CC(C)Oc1ccc(-c2nn(C(C)c3cc4cccc(Cl)c4c(=O)n3-c3ccccc3)c3ncnc(N)c23)cc1F (stereo not drawn) [Example 1, 3-(1-(4-amino-3-(3-fluoro-4-isopropoxyphenyl)-1H-pyrazolo[3,4-d]pyrimidin-1-yl)ethyl)-8-chloro-2-phenylisoquinolin-1(2H)-one]"
232 to 235,0 to 20,0 to 10,60 to 80,40 to 60,"CC(C)Oc1ccc(-c2nn([C@H](C)c3cc4ccccc4c(=O)n3-c3ccccc3)c3ncnc(N)c23)cc1F [Example 5b, (−)-3-(1-(4-amino-3-(3-fluoro-4-isopropoxyphenyl)-1H-pyrazolo[3,4-d]pyrimidin-1-yl)ethyl)-2-phenylisoquinolin-1(2H)-one]"
–,60 to 80,0 to 10,0 to 10,80 to 100,"Cc1n[nH]c2cc(-c3nn([C@@H](C)c4cc5cccc(Cl)c5c(=O)n4-c4ccccc4)c4ncnc(N)c34)ccc12 [Example 21a, (+)-3-(1-(4-amino-3-(3-methyl-1H-indazol-6-yl)-1H-pyrazolo[3,4-d]pyrimidin-1-yl)ethyl)-8-chloro-2-phenylisoquinolin-1(2H)-one]"
